{"source": "ChEMBL document CHEMBL1201862", "about": "“PubChem BioAssay data set” (2004)", "assay_in_all_cases": "NCI tumour cell line growth inhibition, 48 h", "key": {"[1]": {"tested_on": "SNB-19"}, "[2]": {"tested_on": "NCI-H226"}, "[3]": {"tested_on": "SN12C"}, "[4]": {"tested_on": "RXF 393"}, "[5]": {"tested_on": "CAKI-1"}, "[6]": {"tested_on": "OVCAR-5"}, "[7]": {"tested_on": "SK-MEL-2"}, "[8]": {"tested_on": "HCC 2998"}, "[9]": {"tested_on": "SR"}, "[10]": {"tested_on": "NCI-H460"}, "[11]": {"tested_on": "HCT-116"}, "[12]": {"tested_on": "Malme-3M"}, "[13]": {"tested_on": "DU-145"}, "[14]": {"tested_on": "PC-3"}, "[15]": {"tested_on": "UO-31"}, "[16]": {"tested_on": "SNB-75"}, "[17]": {"tested_on": "NCI-H522"}, "[18]": {"tested_on": "OVCAR-3"}, "[19]": {"tested_on": "SF-295"}, "[20]": {"tested_on": "A498"}, "[21]": {"tested_on": "HOP-92"}, "[22]": {"tested_on": "SK-OV-3"}, "[23]": {"tested_on": "U-251"}, "[24]": {"tested_on": "MOLT-4"}, "[25]": {"tested_on": "Hs-578T"}, "[26]": {"tested_on": "K562"}, "[27]": {"tested_on": "HOP-62"}, "[28]": {"tested_on": "IGROV-1"}, "[29]": {"tested_on": "OVCAR-8"}, "[30]": {"tested_on": "M14"}, "[31]": {"tested_on": "BT-549"}, "[32]": {"tested_on": "MDA-MB-435"}, "[33]": {"tested_on": "SK-MEL-5"}, "[34]": {"tested_on": "NCI/ADR-RES"}, "[35]": {"tested_on": "NCI-H23"}, "[36]": {"tested_on": "KM12"}, "[37]": {"tested_on": "COLO 205"}, "[38]": {"tested_on": "TK-10"}, "[39]": {"tested_on": "SK-MEL-28"}, "[40]": {"tested_on": "HT-29"}, "[41]": {"tested_on": "HL-60"}, "[42]": {"tested_on": "HCT-15"}, "[43]": {"tested_on": "UACC-62"}, "[44]": {"tested_on": "T47D"}, "[45]": {"tested_on": "MCF7"}, "[46]": {"tested_on": "RPMI-8226"}, "[47]": {"tested_on": "SF-539"}, "[48]": {"tested_on": "UACC-257"}, "[49]": {"tested_on": "LOX IMVI"}, "[50]": {"tested_on": "OVCAR-4"}, "[51]": {"tested_on": "SF-268"}, "[52]": {"tested_on": "MDA-MB-231"}, "[53]": {"tested_on": "ACHN"}, "[54]": {"tested_on": "EKVX"}, "[55]": {"tested_on": "SW-620"}, "[56]": {"tested_on": "CCRF-CEM"}, "[57]": {"tested_on": "A549"}, "[58]": {"tested_on": "786-0"}}, "note": "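Five concentrations, 48 hours, 96-well plates. GI50 = concentration required for 50% inhibition of growth.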 The source made the active and inactive calls. No stated cut-off is given here; in the data, active = GI50 up to about 1.1 µM and inactive = higher.", "data": [{"smiles": "C/C(=N/NC(=O)c1ccncc1)C(F)(F)F", "values": [{"measurement": "GI50", "setting": "[1]", "result": "> 100 µM (inactive)"}, {"measurement": "GI50", "setting": "[2]", "result": "> 100 µM (inactive)"}, {"measurement": "GI50", "setting": "[3]", "result": "> 100 µM (inactive)"}, {"measurement": "GI50", "setting": "[4]", "result": "> 100 µM (inactive)"}, {"measurement": "GI50", "setting": "[5]", "result": "> 100 µM (inactive)"}, {"measurement": "GI50", "setting": "[6]", "result": "> 100 µM (inactive)"}, {"measurement": "GI50", "setting": "[7]", "result": "> 100 µM (inactive)"}, {"measurement": "GI50", "setting": "[8]", "result": "> 100 µM (inactive)"}, {"measurement": "GI50", "setting": "[9]", "result": "> 100 µM (inactive)"}, {"measurement": "GI50", "setting": "[10]", "result": "> 10 µM (inactive)"}, {"measurement": "GI50", "setting": "[11]", "result": "> 100 µM (inactive)"}, {"measurement": "GI50", "setting": "[12]", "result": "> 100 µM (inactive)"}, {"measurement": "GI50", "setting": "[13]", "result": "> 100 µM (inactive)"}, {"measurement": "GI50", "setting": "[14]", "result": "> 100 µM (inactive)"}, {"measurement": "GI50", "setting": "[15]", "result": "> 100 µM (inactive)"}, {"measurement": "GI50", "setting": "[16]", "result": "> 100 µM (inactive)"}, {"measurement": "GI50", "setting": "[17]", "result": "> 100 µM (inactive)"}, {"measurement": "GI50", "setting": "[18]", "result": "> 100 µM (inactive)"}, {"measurement": "GI50", "setting": "[19]", "result": "> 100 µM (inactive)"}, {"measurement": "GI50", "setting": "[20]", "result": "> 100 µM (inactive)"}, {"measurement": "GI50", "setting": "[21]", "result": "> 100 µM (inactive)"}, {"measurement": "GI50", "setting": "[22]", "result": "> 100 µM (inactive)"}, {"measurement": "GI50", "setting": "[23]", "result": "> 100 µM (inactive)"}, {"measurement": "GI50", "setting": "[24]", "result": "> 100 µM (inactive)"}, {"measurement": "GI50", "setting": "[25]", "result": "> 100 µM (inactive)"}, {"measurement": "GI50", "setting": "[26]", "result": "> 100 µM (inactive)"}, {"measurement": "GI50", "setting": "[27]", "result": "> 100 µM (inactive)"}, {"measurement": "GI50", "setting": "[28]", "result": "> 100 µM (inactive)"}, {"measurement": "GI50", "setting": "[29]", "result": "> 100 µM (inactive)"}, {"measurement": "GI50", "setting": "[30]", "result": "> 100 µM (inactive)"}, {"measurement": "GI50", "setting": "[31]", "result": "> 100 µM (inactive)"}, {"measurement": "GI50", "setting": "[32]", "result": "> 100 µM (inactive)"}, {"measurement": "GI50", "setting": "[33]", "result": "> 100 µM (inactive)"}, {"measurement": "GI50", "setting": "[34]", "result": "> 100 µM (inactive)"}, {"measurement": "GI50", "setting": "[35]", "result": "> 100 µM (inactive)"}, {"measurement": "GI50", "setting": "[36]", "result": "> 100 µM (inactive)"}, {"measurement": "GI50", "setting": "[37]", "result": "> 100 µM (inactive)"}, {"measurement": "GI50", "setting": "[38]", "result": "> 100 µM (inactive)"}, {"measurement": "GI50", "setting": "[39]", "result": "> 100 µM (inactive)"}, {"measurement": "GI50", "setting": "[40]", "result": "> 100 µM (inactive)"}, {"measurement": "GI50", "setting": "[41]", "result": "> 100 µM (inactive)"}, {"measurement": "GI50", "setting": "[42]", "result": "> 100", "unit": "µM"}, {"measurement": "GI50", "setting": "[43]", "result": "> 100 µM (inactive)"}, {"measurement": "GI50", "setting": "[44]", "result": "> 100 µM (inactive)"}, {"measurement": "GI50", "setting": "[45]", "result": "> 100 µM (inactive)"}, {"measurement": "GI50", "setting": "[46]", "result": "> 100 µM (inactive)"}]}, {"smiles": "Cc1oc2nc(N(C)C)n3nnnc3c2c1C", "values": [{"measurement": "GI50", "setting": "[1]", "result": "> 100 µM (inactive)"}, {"measurement": "GI50", "setting": "[2]", "result": "> 100 µM (inactive)"}, {"measurement": "GI50", "setting": "[47]", "result": "> 100 µM (inactive)"}, {"measurement": "GI50", "setting": "[3]", "result": "> 100 µM (inactive)"}, {"measurement": "GI50", "setting": "[4]", "result": "57.4 µM (inactive)"}, {"measurement": "GI50", "setting": "[5]", "result": "> 100 µM (inactive)"}, {"measurement": "GI50", "setting": "[6]", "result": "> 100 µM (inactive)"}, {"measurement": "GI50", "setting": "[48]", "result": "> 100 µM (inactive)"}, {"measurement": "GI50", "setting": "[8]", "result": "> 100 µM (inactive)"}, {"measurement": "GI50", "setting": "[49]", "result": "> 100 µM (inactive)"}, {"measurement": "GI50", "setting": "[9]", "result": "> 10 µM (inactive)"}, {"measurement": "GI50", "setting": "[11]", "result": "> 100 µM (inactive)"}, {"measurement": "GI50", "setting": "[13]", "result": "> 100 µM (inactive)"}, {"measurement": "GI50", "setting": "[15]", "result": "30.3 µM (inactive)"}, {"measurement": "GI50", "setting": "[16]", "result": "67.5 µM (inactive)"}, {"measurement": "GI50", "setting": "[50]", "result": "48 µM (inactive)"}, {"measurement": "GI50", "setting": "[17]", "result": "> 100 µM (inactive)"}, {"measurement": "GI50", "setting": "[19]", "result": "> 100 µM (inactive)"}, {"measurement": "GI50", "setting": "[20]", "result": "76.2 µM (inactive)"}, {"measurement": "GI50", "setting": "[21]", "result": "> 100 µM (inactive)"}, {"measurement": "GI50", "setting": "[22]", "result": "85.7 µM (inactive)"}, {"measurement": "GI50", "setting": "[51]", "result": "> 100 µM (inactive)"}, {"measurement": "GI50", "setting": "[23]", "result": "> 100 µM (inactive)"}, {"measurement": "GI50", "setting": "[24]", "result": "> 100 µM (inactive)"}, {"measurement": "GI50", "setting": "[25]", "result": "> 100 µM (inactive)"}, {"measurement": "GI50", "setting": "[26]", "result": "> 100 µM (inactive)"}, {"measurement": "GI50", "setting": "[28]", "result": "> 100 µM (inactive)"}, {"measurement": "GI50", "setting": "[52]", "result": "> 100 µM (inactive)"}, {"measurement": "GI50", "setting": "[29]", "result": "76 µM (inactive)"}, {"measurement": "GI50", "setting": "[53]", "result": "61.9 µM (inactive)"}, {"measurement": "GI50", "setting": "[30]", "result": "> 100 µM (inactive)"}, {"measurement": "GI50", "setting": "[31]", "result": "74.1 µM (inactive)"}, {"measurement": "GI50", "setting": "[54]", "result": "> 100 µM (inactive)"}, {"measurement": "GI50", "setting": "[32]", "result": "> 100 µM (inactive)"}, {"measurement": "GI50", "setting": "[33]", "result": "> 100 µM (inactive)"}, {"measurement": "GI50", "setting": "[34]", "result": "> 100 µM (inactive)"}, {"measurement": "GI50", "setting": "[35]", "result": "> 100 µM (inactive)"}, {"measurement": "GI50", "setting": "[55]", "result": "> 100 µM (inactive)"}, {"measurement": "GI50", "setting": "[56]", "result": "> 100 µM (inactive)"}, {"measurement": "GI50", "setting": "[36]", "result": "> 100 µM (inactive)"}, {"measurement": "GI50", "setting": "[37]", "result": "> 100 µM (inactive)"}, {"measurement": "GI50", "setting": "[57]", "result": "> 100 µM (inactive)"}, {"measurement": "GI50", "setting": "[58]", "result": "70.1 µM (inactive)"}, {"measurement": "GI50", "setting": "[38]", "result": "> 100 µM (inactive)"}, {"measurement": "GI50", "setting": "[39]", "result": "> 100 µM (inactive)"}, {"measurement": "GI50", "setting": "[40]", "result": "> 100 µM (inactive)"}, {"measurement": "GI50", "setting": "[41]", "result": "18.6 µM (inactive)"}, {"measurement": "GI50", "setting": "[42]", "result": "> 100", "unit": "µM"}, {"measurement": "GI50", "setting": "[43]", "result": "49.9 µM (inactive)"}, {"measurement": "GI50", "setting": "[44]", "result": "> 100 µM (inactive)"}, {"measurement": "GI50", "setting": "[45]", "result": "> 100 µM (inactive)"}, {"measurement": "GI50", "setting": "[46]", "result": "> 100 µM (inactive)"}]}]}
